1 compound from patent US20050158371A1, “Novel external agent” (Sumitomo Pharmaceuticals Co., Ltd., priority 2002, published 2005) can be followed below.

SMILES strings stand for the structures.

The nature of the data set: Serum concentration of leflunomide after transdermal or oral administration to adjuvant arthritis rats, LC-MS/MS (Experimental Example 5B). The settings on record: rat, leflunomide in serum, single oral administration 20 mg/kg. The format is in vivo. The procedure:
The dosage form for external application of leflunomide as shown in Example was administered once to adjuvant arthritis rats prepared in the same manner as in Experimental Example 1B and the concentration of leflunomide in serum was measured using LC-MS/MS. In addition, the concentration in serum on simultaneous oral administration of leflunomide once (20 mg/kg) was measured and compared.

As to `Cc1oncc1C(=O)Nc1ccc(C(F)(F)F)cc1` [leflunomide, N-(4′-trifluoromethylphenyl)-5-methylisoxazole-4-carboxamide], the AUC(0-t) (read-out: AUC, area under the drug concentration-time curve [AUC(0−T)]) turned out to be 600 ng·h/mL. Moreover, the Cmax (read-out: Cmax, maximum drug concentration) worked out at 502 ng/mL. Moreover, the Tmax (read-out: tmax, times to reach maximum drug concentration) came to 30 min.
